In brackets after ≈: the same amount, converted by molar mass.
How the values were obtained:
L-1210 Lymphoid Leukemia [1] = test: NCI screen, L-1210 Lymphoid Leukemia, subcutaneous (summary); format: in vivo, Mouse
Description: The activity of the compound has been evaluated by experiments carried out under the auspices of the Division of Cancer Treatment, National Cancer Institute, employing techniques considered to be reliable indicators of chemotherapeutic utility in the treatment of forms of cancer in human patients. The details of the methodology employed in the reported experiments may be determined with reference to established NCI screening methods. In the experiments conducted by the NCI, evaluation of activity is made on the basis of appropriate parameters, such as median survival time (MST) or change in average tumor diameter (CATD)in ocular micrometer units (OMU).

LX-1 lung xenograft = test: NCI screen, LX-1 lung xenograft, renal capsule (summary); format: in vivo, human tumor xenograft in athymic mice; conditions: for Antitumor activity in words: LX-1 lung xenograft
Description: The activity of the compound has been evaluated by experiments carried out under the auspices of the Division of Cancer Treatment, National Cancer Institute, employing techniques considered to be reliable indicators of chemotherapeutic utility in the treatment of forms of cancer in human patients. The details of the methodology employed in the reported experiments may be determined with reference to established NCI screening methods.
In the experiments conducted by the NCI, evaluation of activity is made on the basis of appropriate parameters, such as median survival time (MST) or change in average tumor diameter (CATD)in ocular micrometer units (OMU).

physchem = format: physicochemical
Protocol: While the compound was generally tested as a suspension in Tween-80, in one L1210 experiment it was tested as a solution in 0.1 N HCL diluted with saline. The level of activity (ILS=117%) was maintained. The solubilities of the compound in 0.01 N and 0.1 HCl are approximately 3 and 30 mg/ml, respectively.
Formulation: 100 mg drug and 1 N HCl lyophilized yield the salt. The lyophilized cake dissolves in 2 ml sterile water to yield a 50 mg/ml red solution at pH 5.0-7.0.

[2] = format: physicochemical
Description: Stability: The reconstituted solution is stable for 14 days at room temperature. When further diluted 200-fold with normal saline the drug remains stable for 14 days at both room and refrigeration temperatures. The reconstituted solution is not stable when further diluted with 5% dextrose in water so this vehicle will not be used for infusions of the drug. Storage: The intact vials should be stored under refrigeration.
Stability: The reconstituted solution is stable for 14 days at room temperature. When further diluted 200-fold with normal saline the drugs remains stable for 14 days at both room and refrigeration temperatures. The reconstituted solution is not stable when further diluted with 5% dextrose in water so this vehicle will not be used for infusions of the drug. Storage: The intact vials should be stored under refrigeration.

[3] = Blood compatibility testing, canine; conditions: 50 mg/ml, 1:1
L-1210 Lymphoid leukemia [4] = test: Experiment 4: L-1210 s.c., 10^5 cells, acid diluted with saline, male; format: in vivo, Mouse CD2 F1 (CDF1)
Description: Host: Mouse CD2 F1 (CDF1)
(§1) Tumor: L-1210 Lymphoid leukemia
(§2) Inoculum Site: Subcutaneous
Vehicle: acid diluted with saline
(§3) Treatment schedule (relative to tumor inoculation day): daily on days 1-9
(§4) Day of evaluation (relative to tumor inoculation day): 30
(§5) Parameter: Median survival time (MST) in days
(§6) NCI minimal activity criteria: Percent T/C≥125
(§7) Percent T/C: Ratio of test (T) evaluation to control (C) evaluation expressed as a percentage

L-1210 Lymphoid leukemia [5] = test: Experiment 9: L-1210 i.p., 10^5 cells, saline with Tween-80, male; format: in vivo, CD2F1 (CDF)
Description: as §1
(§8) Inoculum Site: Intraperitoneal
(§9) Vehicle: Saline with Tween-80
as §3, §4
Parameter: Mean survival time (MST) in days
as §6, §7

B16 Melanocarcinoma [6] = test: Experiment 17: B16 i.p., saline with Tween-80, female; format: in vivo, Mouse B6C3F1
Description: (§10) Tumor: B16 Melanocarcinoma
as §8
(§11) Tissue: Homogenate (or brei), tumor
as §9, §3
(§12) Day of evaluation (relative to tumor inoculation day): 60
as §5, §6, §7

B16 Melanocarcinoma [7] = test: Experiment 19: B16 i.p., acid diluted with saline, female; format: in vivo, Mouse B6 D2 F1
Description: as §10, §8, §11
Vehicle: Acid diluted with saline
Treatment schedule: (relative to tumor inoculation day): daily on days 1-9
as §12, §5, §6, §7

Colon 38 = test: Experiment 12 (second): Colon 38 s.c., saline with Tween-80, female; format: in vivo, Mouse B6 D2 F1 (BDF1)
Description: Host: Mouse B6 D2 F1 (BDF1)
as §2, §9
Treatment schedule (relative to tumor inoculation day): days 2 and 9
Day of evaluation (relative to tumor inoculation day): 20
Parameter: Median tumor weight (MTW) estimated from tumor diameter
NCI minimal activity criteria: Percent T/C≤42
as §7

SMILES: CN(C)CCN1C(=O)c2cccc3cc(N)cc(c23)C1=O [Example 9, 1H-Benz[de]isoquinoline-1,3(2H)-dione, 5-amino-2-[2-(dimethylamino)ethyl]]
- Table II evaluation (L-1210 Lymphoid Leukemia [1]; median survival time, 16 tests, full wrapped cell: Activity substantially greater than the minimal): Activity
- Antitumor activity in words (L-1210 Lymphoid Leukemia [1]; s.c. implanted L1210): active
- Antitumor activity in words (LX-1 lung xenograft; listed as BIDA): No activity was seen
- Antitumor activity in words (LX-1 lung xenograft; listed as the compound): not active
- Table II evaluation (LX-1 lung xenograft; change in average tumor diameter, 4 tests, full wrapped cell: Activity not confirmed): Activity not
- solubility (physchem; 0.01 n hcl): ~3 mg/mL (≈ 10.6 mM)
- solubility (physchem; 0.1 hcl): ~30 mg/mL (≈ 106 mM)
- pH of reconstituted solution (physchem; lyophilized cake in 2 ml sterile water): 5.0-7.0
- stability of reconstituted solution [2]: 14 days
- stability, diluted 200-fold with normal saline [2]: 14 days
- stability, diluted with 5% dextrose in water [2]: not stable
- blood compatibility ([3]; canine heparinized plasma): compatibility
- blood compatibility ([3]; canine serum): compatibility
- Median survival time (MST) (L-1210 Lymphoid leukemia [4]; 0.00 mg/kg [sic] i.p.): 8.9 days
- Percent T/C (L-1210 Lymphoid leukemia [4]; 0.00 mg/kg [sic] i.p.): 101%
- Median survival time (MST) (L-1210 Lymphoid leukemia [4]; 5.00 mg/kg i.p.): 10.4 days
- Percent T/C (L-1210 Lymphoid leukemia [4]; 5.00 mg/kg i.p.): 118%
- Median survival time (MST) (L-1210 Lymphoid leukemia [4]; 7.00 mg/kg i.p.): 10.7 days
- Percent T/C (L-1210 Lymphoid leukemia [4]; 7.00 mg/kg i.p.): 121%
- Median survival time (MST) (L-1210 Lymphoid leukemia [4]; 10.00 mg/kg i.p.): 12.0 days
- Percent T/C (L-1210 Lymphoid leukemia [4]; 10.00 mg/kg i.p.): 136%
- Median survival time (MST) (L-1210 Lymphoid leukemia [4]; 16.00 mg/kg i.p.): 15.3 days
- Percent T/C (L-1210 Lymphoid leukemia [4]; 16.00 mg/kg i.p.): 173%
- Median survival time (MST) (L-1210 Lymphoid leukemia [4]; 24.00 mg/kg i.p.): 11.0 days
- Percent T/C (L-1210 Lymphoid leukemia [4]; 24.00 mg/kg i.p.): 125%
- Mean survival time (MST) (L-1210 Lymphoid leukemia [5]; 1.00 mg/kg i.p.): 9.0 days
- Percent T/C (L-1210 Lymphoid leukemia [5]; 1.00 mg/kg i.p.): 104%
- Mean survival time (MST) (L-1210 Lymphoid leukemia [5]; 2.00 mg/kg i.p.): 8.7 days
- Percent T/C (L-1210 Lymphoid leukemia [5]; 2.00 mg/kg i.p.): 101%
- Mean survival time (MST) (L-1210 Lymphoid leukemia [5]; 4.00 mg/kg i.p.): 9.3 days
- Percent T/C (L-1210 Lymphoid leukemia [5]; 4.00 mg/kg i.p.): 108%
- Mean survival time (MST) (L-1210 Lymphoid leukemia [5]; 8.00 mg/kg i.p.): 11.7 days
- Percent T/C (L-1210 Lymphoid leukemia [5]; 8.00 mg/kg i.p.): 136%
- Mean survival time (MST) (L-1210 Lymphoid leukemia [5]; 16.00 mg/kg i.p.): 17.0 days
- Percent T/C (L-1210 Lymphoid leukemia [5]; 16.00 mg/kg i.p.): 197%
- Mean survival time (MST) (L-1210 Lymphoid leukemia [5]; 32.00 mg/kg i.p.): 7.7 days
- Percent T/C (L-1210 Lymphoid leukemia [5]; 32.00 mg/kg i.p.): 89%
- Median survival time (MST) (B16 Melanocarcinoma [6]; 1.00 mg/kg i.p.): 18.8 days
- Percent T/C (B16 Melanocarcinoma [6]; 1.00 mg/kg i.p.): 102%
- Median survival time (MST) (B16 Melanocarcinoma [6]; 2.00 mg/kg i.p.): 17.0 days
- Percent T/C (B16 Melanocarcinoma [6]; 2.00 mg/kg i.p.): 102%
- Median survival time (MST) (B16 Melanocarcinoma [6]; 4.00 mg/kg i.p.): 20.0 days
- Percent T/C (B16 Melanocarcinoma [6]; 4.00 mg/kg i.p.): 120%
- Median survival time (MST) (B16 Melanocarcinoma [6]; 8.00 mg/kg i.p.): 19.4 days
- Percent T/C (B16 Melanocarcinoma [6]; 8.00 mg/kg i.p.): 116%
- Median survival time (MST) (B16 Melanocarcinoma [6]; 16.00 mg/kg i.p.): 22.9 days
- Percent T/C (B16 Melanocarcinoma [6]; 16.00 mg/kg i.p.): 137%
- Median survival time (MST) (B16 Melanocarcinoma [6]; 32.00 mg/kg i.p.): 7.0 days
- Median survival time (MST) (B16 Melanocarcinoma [7]; 1.00 mg/kg i.p.): 19.8 days
- Percent T/C (B16 Melanocarcinoma [7]; 1.00 mg/kg i.p.): 99%
- Median survival time (MST) (B16 Melanocarcinoma [7]; 2.00 mg/kg i.p.): 21.9 days
- Percent T/C (B16 Melanocarcinoma [7]; 2.00 mg/kg i.p.): 110%
- Median survival time (MST) (B16 Melanocarcinoma [7]; 4.00 mg/kg i.p.): 22.8 days
- Percent T/C (B16 Melanocarcinoma [7]; 4.00 mg/kg i.p.): 114%
- Median survival time (MST) (B16 Melanocarcinoma [7]; 8.00 mg/kg i.p.): 24.3 days
- Percent T/C (B16 Melanocarcinoma [7]; 8.00 mg/kg i.p.): 122%
- Median survival time (MST) (B16 Melanocarcinoma [7]; 16.00 mg/kg i.p.): 31.0 days
- Percent T/C (B16 Melanocarcinoma [7]; 16.00 mg/kg i.p.): 155%
- Median survival time (MST) (B16 Melanocarcinoma [7]; 32.00 mg/kg i.p.): 6.8 days
- Median tumor weight (MTW) (Colon 38; 8.00 mg/kg i.p.): 1100
- Percent T/C (Colon 38; 8.00 mg/kg i.p.): 88%
- Median tumor weight (MTW) (Colon 38; 16.00 mg/kg i.p.): 1256
- Percent T/C (Colon 38; 16.00 mg/kg i.p.): 100%
- Median tumor weight (MTW) (Colon 38; 32.00 mg/kg i.p.): 1005
- Percent T/C (Colon 38; 32.00 mg/kg i.p.): 80%
- Median tumor weight (MTW) (Colon 38; 64.00 mg/kg i.p.): 699
- Percent T/C (Colon 38; 64.00 mg/kg i.p.): 55%
- Median tumor weight (MTW) (Colon 38; 128.00 mg/kg i.p.): Deaths before evaluation

— patent US5183821A, “Method for treating leukemias using N-(2-dimethylaminoethyl)-3-amino-1,8-naphthalimide for treating leukemias and solid tumors” (priority 1991, dated 1993)
